Assay results from US20250109168A1, “POLYPEPTIDE AND USE THEREOF IN REGULATING BLOOD GLUCOSE LEVEL AND/OR REDUCING FAT” (Greenyn Biotechnology Co., Ltd, priority 2023, published 2025).

Tests used:
PGC-1α = test: Cell test: western blotting of PGC-1α in C2C12 mouse myoblasts; assay type: cell-based; conditions: for Expression of PGC-1α, result in words: C2C12 cells, without induction by insulin, summary of Table 6; for PGC-1α (change in expression): C2C12 mouse myoblasts, final concentration 20 μL/mL, 24 hours, western blotting
Description: [The source words this procedure for another target and reports this target under the same test.] (§1) C2C12 mouse myoblasts were obtained and were cultured in groups for 24 hours. After that, the culture medium of each group was added with human insulin (MedChemExpress LLC), polypeptide 1 of the present invention (SEQ ID No.: 1), polypeptide 2 of the invention (SEQ ID No.: 2), polypeptide 3 of the invention (SEQ ID No.: 3), polypeptide 4 of the invention (SEQ ID No.: 4), or polypeptide 5 (whose amino acid sequence number is SEQ ID No.: 5 and which was used for the control group) such that the final concentration of the added insulin/polypeptide in the culture medium was 20 μL/mL. The cells in each group were then cultured for another 24 hours, before the culture medium of each cell group was removed. The cells were subsequently washed with a phosphate-buffered solution, added with a radioimmunoprecipitation assay (RIPA) buffer containing a phosphatase inhibitor, and kept in a refrigerator, allowing reactions to take place for 30 minutes. Following that, the cells were thawed, subjected to vibration extraction with an ultrasonic vibrator for 5 minutes, and centrifuged. The supernatant of each cell group was collected and was analyzed by the western blotting method in order to determine changes in the expression of p-IR/IR, p-Akt, GLUT4, mTOR, PPARα, and p-AMPK in each cell group.

PPARα = test: Cell test: western blotting of PPARα in C2C12 mouse myoblasts; assay type: cell-based; conditions: for Expression of PPARα, result in words: C2C12 cells, without induction by insulin, summary of Table 6; for PPARα (change in expression): C2C12 mouse myoblasts, final concentration 20 μL/mL, 24 hours, western blotting
Description: as §1

GLUT4 = test: Cell test: western blotting of GLUT4 in C2C12 mouse myoblasts; assay type: cell-based; conditions: for Expression of GLUT4, result in words: C2C12 cells, without induction by insulin, summary of Table 6; for GLUT4 (change in expression): C2C12 mouse myoblasts, final concentration 20 μL/mL, 24 hours, western blotting
Description: as §1

p-IR/IR = test: Cell test: western blotting of p-IR/IR in C2C12 mouse myoblasts; assay type: cell-based; conditions: for Insulin receptor phosphorylation (p-IR/IR), result in words: C2C12 cells, without induction by insulin, summary of Table 6; for p-IR/IR (change in expression): C2C12 mouse myoblasts, final concentration 20 μL/mL, 24 hours, western blotting
Description: as §1

p-AMPK = test: Cell test: western blotting of p-AMPK in C2C12 mouse myoblasts; assay type: cell-based; conditions: final concentration 20 μL/mL, 24 hours
Description: as §1

mTOR = test: Cell test: western blotting of mTOR in C2C12 mouse myoblasts; assay type: cell-based; conditions: final concentration 20 μL/mL, 24 hours
Description: as §1

p-Akt = test: Cell test: western blotting of p-Akt in C2C12 mouse myoblasts; assay type: cell-based; conditions: for Expression of phosphorylated Akt, result in words: C2C12 cells, without induction by insulin, summary of Table 6; for p-Akt (change in expression): C2C12 mouse myoblasts, final concentration 20 μL/mL, 24 hours, western blotting
Description: as §1

insulin receptor = insulin receptor (mouse, UniProt P15208 28-1372); test: cell-based or functional assay
Chain of insulin receptor (P15208 28-1372): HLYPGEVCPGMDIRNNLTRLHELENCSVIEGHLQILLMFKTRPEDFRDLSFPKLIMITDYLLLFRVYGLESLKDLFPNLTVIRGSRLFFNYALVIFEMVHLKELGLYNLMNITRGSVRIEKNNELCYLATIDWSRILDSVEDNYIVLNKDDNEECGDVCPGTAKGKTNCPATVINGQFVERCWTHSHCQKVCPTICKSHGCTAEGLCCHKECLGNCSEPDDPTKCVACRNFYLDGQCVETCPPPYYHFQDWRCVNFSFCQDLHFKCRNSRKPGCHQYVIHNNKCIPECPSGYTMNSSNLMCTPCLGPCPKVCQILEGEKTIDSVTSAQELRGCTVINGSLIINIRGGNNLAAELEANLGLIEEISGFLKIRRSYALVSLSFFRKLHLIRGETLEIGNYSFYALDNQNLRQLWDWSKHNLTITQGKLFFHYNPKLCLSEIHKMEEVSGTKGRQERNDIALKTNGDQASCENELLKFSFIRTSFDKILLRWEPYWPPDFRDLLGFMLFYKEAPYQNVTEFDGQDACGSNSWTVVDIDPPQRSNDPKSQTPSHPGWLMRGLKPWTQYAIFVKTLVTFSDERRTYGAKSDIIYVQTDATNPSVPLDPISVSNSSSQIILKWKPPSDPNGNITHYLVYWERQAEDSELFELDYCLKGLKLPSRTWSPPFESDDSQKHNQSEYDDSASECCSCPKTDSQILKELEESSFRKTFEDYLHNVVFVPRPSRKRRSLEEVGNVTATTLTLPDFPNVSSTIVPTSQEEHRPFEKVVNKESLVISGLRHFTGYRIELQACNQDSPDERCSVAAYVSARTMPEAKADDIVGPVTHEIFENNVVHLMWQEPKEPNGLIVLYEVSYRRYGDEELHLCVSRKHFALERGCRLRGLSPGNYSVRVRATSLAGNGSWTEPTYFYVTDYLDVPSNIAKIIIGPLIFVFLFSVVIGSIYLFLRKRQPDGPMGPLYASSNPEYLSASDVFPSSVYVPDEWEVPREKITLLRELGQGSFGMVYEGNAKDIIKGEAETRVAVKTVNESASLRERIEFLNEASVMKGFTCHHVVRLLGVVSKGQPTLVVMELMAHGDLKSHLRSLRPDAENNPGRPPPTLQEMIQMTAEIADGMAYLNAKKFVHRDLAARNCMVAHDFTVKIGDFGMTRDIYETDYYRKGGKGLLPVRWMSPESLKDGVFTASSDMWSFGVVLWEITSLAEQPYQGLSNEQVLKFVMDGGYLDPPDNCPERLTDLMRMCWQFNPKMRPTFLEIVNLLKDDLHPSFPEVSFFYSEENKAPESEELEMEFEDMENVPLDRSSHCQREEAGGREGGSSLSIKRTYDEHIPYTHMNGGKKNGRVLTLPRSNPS

## GGGDATRYSTGGGYS [polypeptide 1]
PGC-1α
  Expression of PGC-1α, result in words: enhance the expression of PGC-1α
  PGC-1α (change in expression): +161%
PPARα
  Expression of PPARα, result in words: enhance the expression of PGC-1α and PPARα
  PPARα (change in expression): +173%
GLUT4
  Expression of GLUT4, result in words: increase the expression of phosphorylated Akt and GLUT4
  GLUT4 (change in expression): +376%
p-IR/IR
  Insulin receptor phosphorylation (p-IR/IR), result in words: able to encourage insulin receptor phosphorylation
p-AMPK
  p-AMPK (change in expression): +232%
mTOR
  mTOR (change in expression): +136%
p-Akt
  Expression of phosphorylated Akt, result in words: increase the expression of phosphorylated Akt
  p-Akt (change in expression): +196%

## INPNEQREV [polypeptide 2]
PGC-1α
  Expression of PGC-1α, result in words: enhance the expression of PGC-1α
  PGC-1α (change in expression): +0%
PPARα
  Expression of PPARα, result in words: enhance the expression of PGC-1α and PPARα
  PPARα (change in expression): +62%
GLUT4
  Expression of GLUT4, result in words: increase the expression of phosphorylated Akt and GLUT4
  GLUT4 (change in expression): +23%
p-IR/IR
  Insulin receptor phosphorylation (p-IR/IR), result in words: able to encourage insulin receptor phosphorylation
p-AMPK
  p-AMPK (change in expression): +70%
mTOR
  mTOR (change in expression): +22%
p-Akt
  Expression of phosphorylated Akt, result in words: increase the expression of phosphorylated Akt
  p-Akt (change in expression): +29%

## MQIFVK [polypeptide 4]
PGC-1α
  Expression of PGC-1α, result in words: enhance the expression of PGC-1α
  PGC-1α (change in expression): +155%
PPARα
  Expression of PPARα, result in words: enhance the expression of PGC-1α and PPARα
  PPARα (change in expression): +151%
GLUT4
  Expression of GLUT4, result in words: increase the expression of GLUT4
  GLUT4 (change in expression): +156%
p-IR/IR
  Insulin receptor phosphorylation (p-IR/IR), result in words: able to encourage insulin receptor phosphorylation
p-AMPK
  p-AMPK (change in expression): +91%
mTOR
  mTOR (change in expression): +74%
p-Akt
  Expression of phosphorylated Akt, result in words: failure to increase the expression of phosphorylated Akt significantly
  p-Akt (change in expression): −3%

## MQIFVKTLTG [polypeptide 3]
PGC-1α
  Expression of PGC-1α, result in words: enhance the expression of PGC-1α
  PGC-1α (change in expression): +258%
PPARα
  Expression of PPARα, result in words: enhance the expression of PGC-1α and PPARα
  PPARα (change in expression): +196%
GLUT4
  Expression of GLUT4, result in words: increase the expression of phosphorylated Akt and GLUT4
  GLUT4 (change in expression): +582%
p-IR/IR
  Insulin receptor phosphorylation (p-IR/IR), result in words: able to encourage insulin receptor phosphorylation
p-AMPK
  p-AMPK (change in expression): +210%
mTOR
  mTOR (change in expression): +117%
p-Akt
  Expression of phosphorylated Akt, result in words: increase the expression of phosphorylated Akt
  p-Akt (change in expression): +153%

## VATVIQVL [polypeptide 5, reference compound]
PGC-1α
  Expression of PGC-1α, result in words: weaker enhancing effect
  PGC-1α (change in expression): +3%
PPARα
  Expression of PPARα, result in words: weaker enhancing effect
  PPARα (change in expression): +23%
GLUT4
  Expression of GLUT4, result in words: weaker enhancing effect
  GLUT4 (change in expression): +34%
p-IR/IR
  p-IR/IR (change in expression): 1
p-AMPK
  p-AMPK (change in expression): +7%
mTOR
  mTOR (change in expression): +0%
p-Akt
  Expression of phosphorylated Akt, result in words: failed to increase the expression of phosphorylated Akt
  p-Akt (change in expression): −42%

## human insulin (MedChemExpress LLC) (from UniProt P01308 25-54; P01308 90-110) (ligand)
Insulin receptor
  p-IR/IR: 1.23

## human insulin [reference compound]
PGC-1α
  PGC-1α (change in expression): +50%
PPARα
  PPARα (change in expression): +40%
GLUT4
  GLUT4 (change in expression): +41%
p-IR/IR
  p-IR/IR (change in expression): 1.23
p-AMPK
  p-AMPK (change in expression): +1%
mTOR
  mTOR (change in expression): −2%
p-Akt
  p-Akt (change in expression): +56%

## INPNEQREV [Polypeptide 2]
Insulin receptor
  p-IR/IR: 1

## GGGDATRYSTGGGYS [Polypeptide 1]
Insulin receptor
  p-IR/IR: 1.81

## MQIFVK [Polypeptide 4]
Insulin receptor
  p-IR/IR: 1.97

## MQIFVKTLTG [Polypeptide 3]
Insulin receptor
  p-IR/IR: 3.08
